Assays:
mouse SKH2 [1] = test: In vivo pro-pigmenting activity by topical route with NB-UVB, clinical score of pigmentation; details: 8% topical on the back of SKH2 mice, 43 days, in combination with NB-UVB irradiation (60 mJ/cm2); versus irradiated group treated with the vehicle
Method: (§1) In mice, melanocytes are not present in the epidermis of hair-covered areas but are mainly present in the hair follicles. Pigmentation can be induced by irradiation with UVB in combination with topical or oral agents. The pigmentation changes can be quantified by various means such as clinical score pigmentation and pigmentation measurement by image analysis.
(§2) The evaluation of the MC1R receptor agonists pro-pigmenting activity in combination with NB-UVB irradiation (60 mJ/cm2) is performed by topical application on the back of the mouse SKH2 during 43 days with MC1R agonist compound A at 8% or MC1R agonist compound B at 8% in combination with NB-UVB radiation.
(§3) Practically, the animals were irradiated using the system Biospectra equipped NB-UVB lamps (peak emission maximum at 312 nm) irradiation at 3 times per week at 60 mJ/cm^2 on Monday, Wednesday and Friday. The treatment is carried out 5 days a week and 50 μl of the test product (compounds A or B) is diluted in the vehicle and applied on the back. In the case of associations with radiation, the compounds are administered after irradiation.
(§4) Then, the pigmentation changes is quantified by clinical score pigmentation and pigmentation measurement by image analysis.
The clinical score of animals is performed 1 time per week before irradiation. The pigmentation is evaluated with a score on a scale of 0 to 4. […]

mouse SKH2 [2] = test: In vivo pro-pigmenting activity by topical route with NB-UVB, quantification of pigmentation by image analysis at the end of study; details: 8% topical on the back of SKH2 mice, in combination with NB-UVB irradiation (60 mJ/cm2)
Method: as §1, §2, §3, §4
At the end of the study, for each animal, two digital photographs of the skin of the back are made with a high quality dermascope and digital camera such as the LiteScope™. […]

SMILES | pigmentation of the skin (clinical score of pigmentation, FIGS. 1 and 2) (mouse SKH2 [1]) | pigmentation level at the end of the study by image analysis (FIG. 3) (mouse SKH2 [2])
CCOC(=O)C1(C2CCCCC2)CCN(C(=O)[C@@H](Cc2ccc(OC)cc2)NC(=O)NCCc2c[nH]cn2)CC1 [Compound A, 4-Cyclohexyl-1-[(R)-2-{3-[2-(1H-imidazol-4-yl)-ethyl]-ureido}-3-(4-methoxy-phenyl)-propionyl]-piperidine-4-ethyl-carboxylate] | significantly increases the pigmentation of the skin | synergistic effect is confirmed
COc1ccc(C[C@@H](NC(=O)CCc2nc[nH]c2C)C(=O)N2CC(OCC3CC3)(c3ccccc3C)C2)cc1 [compound B, N—[(R)-2-(3-Cyclopropylmethoxy-3-o-tolyl-azetidin-1-yl)-1-(4-methoxy-benzyl)-2-oxo-ethyl]-3-(5-methyl-1H-imidazol-4-yl)-propionamide] | significantly increases the pigmentation of the skin | 
